Measured values published in paper PMC7515946, “Targeting of Perforin Inhibitor into the Brain Parenchyma Via a Prodrug Approach Can Decrease Oxidative Stress and Neuroinflammation and Improve Cell Survival” (Molecular Neurobiology, 2020).
Values joined by “and” are separate entries in the source; they are usually repeats but may differ in a detail not shown here. Equal values may be shown once. “Also recorded” adds a separate entry of the source.

What was measured:
[1] = tested on: MCF-7 human breast adenocarcinoma cells; assay: Cell viability of MCF-7 cells with cisplatin co-treatment (resazurin); assay type: cell-based; details: 10–400 μM together with 100 μM cisplatin, 72 h
[2] = parameters: method as in PMID 27266990; details: cited from earlier work
[3] = Intracellular unbound concentrations in astrocytes (RED dialysis, Kp,uu,cell); assay type: in vitro ADME; details: mouse; for fraction unbound at 4 h, 100 μM: astrocyte homogenate, RED, 37 °C, read-out: fu,cell (unbound fraction)
Experimental: The non-specific binding of compounds (100 μM) was determined in astrocyte homogenate by using the Rapid Equilibrium Dialysis (RED) device (Thermo Fisher Scientific, Inc., Waltham, MA, USA). Briefly, the astrocyte cell suspension (10 × 10^6 cells/mL) was homogenized with HBSS by the SoniPerp 150 Plus disintegrator (MSE Ltd., London, UK) (2 s × 3). The studied compound was mixed with 100 μL of cell homogenate and added to the reaction chamber. A 350-μL HBSS buffer was added to the buffer chamber. The dialysis plate was incubated at 37 °C for 4 h with shaking. Fifty microliters of samples were taken from the reaction and buffer chambers and equal size of the buffer or blank homogenate were added, respectively, to yield identical matrices. The proteins were precipitated by adding 100 μL of ice-cold ACN (including the selected internal standard; see above), and the supernatants were collected for LC-MS analysis (see above) after centrifugation at 12,000 × g for 10 min. The unbound drug fraction (fu,cell) was calculated by dividing concentration in the buffer chamber by concentration in the reaction chamber and taking into account the effect of homogenate dilution factor (D = 45 for 10 × 10^6 cells/mL cell suspension according to their weight of the cells) as described earlier.
The compound concentration ratios in astrocytes (Kp) was determined at 0.01–1.0 μM concentrations by comparing the cellular uptake amount (nmol) in cell lysates (0.1 M NaOH) per astrocyte cell volume (0.05810^−15 L/cell for 10 × 10^4 cells/well) to the concentrations (nM) detected from the surrounding buffer (HBSS) collected before cell lysing as described previously. The unbound drug concentration ratio (Kp,uu) was then calculated by multiplying the drug concentration ratio (Kp) by unbound drug fraction (fu,cell).

[4] = biological target: T1, LAT1 (Mus musculus, UniProt Q9Z127); assay: Ability to bind to LAT1: inhibition of [14C]-L-leucine uptake in astrocytes; assay type: cell-based; details: mouse primary astrocytes, 0.76 μM [14C]-L-leucine, 5 min, 37 °C
T1 construct: endogenous in cells; host or cells: mouse primary astrocytes (C57BL/6JOlaHsd), cortex and hippocampi
Experimental: For the transporter-binding studies, the astrocytes were seeded on 24-well plates with a density of 10 × 10^4 cells/well 3 days before the experiments. After removal of the culture medium, the cells were carefully washed with pre-warmed HBSS (Hank’s balanced salt solution) containing choline chloride (125 mM), KCl (4.8 mM), MgSO4 (1.2 mM), KH2PO4 (1.2 mM), CaCl2 (1.3 mM), glucose (5.6 mM), and HEPES (25 mM) adjusted to pH 7.4 with 1 M NaOH. The cells were pre-incubated with 500 μL of pre-warmed HBSS at 37 °C for 5 min before the experiments. To study the ability of studied compounds to inhibit the uptake of a known LAT1 substrate, the cells were incubated at 37 °C for 5 min with an uptake buffer (HBSS, 250 μL) containing 0.76 μM (0.25 mCi/mL or […]) of [^14C]-L-leucine (PerkinElmer, Waltham, MA, USA) and 0.1–1000 μM of studied compound (or HBSS as blank). After incubation, the uptake was stopped by adding 500 μL of ice-cold HBSS, and the cells were washed two times with ice-cold HBSS (2 × 500 μL). The cells were then lysed with 500 μL of NaOH (0.1 M) for 60 min and the lysate was mixed with 3.5 mL of Emulsifier-Safe cocktail (Ultima Gold, PerkinElmer, Waltham, MA, USA). The radioactivity in the cells was measured by liquid scintillation counting (MicroBeta^2 counter, PerkinElmer Waltham, MA, USA). Half of the maximum inhibitory concentration (IC50) values were calculated by nonlinear regression analysis (fitting the curve to log (concentration) vs. remaining normalized viability).

[5] = biological target: T2, butyrylcholinesterase (BChE) (Mus musculus, UniProt Q03311); assay type: biochemical; details: mouse brain S9 fraction, butyrylthiocholine 1 mM, 30 min endpoint
T2 construct: mouse brain S9 fraction was prepared by homogenizing freshly collected mouse brain; from tissue; host or cells: mouse brain S9 fraction (9000 x g supernatant)
Experimental: (§1) Briefly, mouse brain S9 fraction was prepared by homogenizing freshly collected mouse brain with 50 mM Tris-buffered saline (TBS) (pH 7.4) (1:4 w/v), centrifuging the homogenate at 9000 × g for 20 min at 4 °C and collecting the supernatant. The supernatant was then diluted 1:10 with phosphate buffer (100 mM; pH 7.0) and mixed with Ellman’s reagent (DTNB; 1 mM) and studied compounds in DMSO (DMSO concentration was less than 0.5%) on a 96-well plate as 3 parallel assays.

[6] = tested on: primary astrocytes; assay: Ability to affect cell growth of primary astrocytes (resazurin); assay type: cell-based; details: 72 h
[7] = biological target: T3, acetylcholinesterase (AChE) (Mus musculus, UniProt P21836); assay: biochemical; details: for IC50: mouse brain S9 fraction, acetylthiocholine 1 mM, 30 min endpoint
T3 construct: mouse brain S9 fraction was prepared by homogenizing freshly collected mouse brain; from tissue; host or cells: mouse brain S9 fraction (9000 x g supernatant)
T3 sequence (P21836 32-614): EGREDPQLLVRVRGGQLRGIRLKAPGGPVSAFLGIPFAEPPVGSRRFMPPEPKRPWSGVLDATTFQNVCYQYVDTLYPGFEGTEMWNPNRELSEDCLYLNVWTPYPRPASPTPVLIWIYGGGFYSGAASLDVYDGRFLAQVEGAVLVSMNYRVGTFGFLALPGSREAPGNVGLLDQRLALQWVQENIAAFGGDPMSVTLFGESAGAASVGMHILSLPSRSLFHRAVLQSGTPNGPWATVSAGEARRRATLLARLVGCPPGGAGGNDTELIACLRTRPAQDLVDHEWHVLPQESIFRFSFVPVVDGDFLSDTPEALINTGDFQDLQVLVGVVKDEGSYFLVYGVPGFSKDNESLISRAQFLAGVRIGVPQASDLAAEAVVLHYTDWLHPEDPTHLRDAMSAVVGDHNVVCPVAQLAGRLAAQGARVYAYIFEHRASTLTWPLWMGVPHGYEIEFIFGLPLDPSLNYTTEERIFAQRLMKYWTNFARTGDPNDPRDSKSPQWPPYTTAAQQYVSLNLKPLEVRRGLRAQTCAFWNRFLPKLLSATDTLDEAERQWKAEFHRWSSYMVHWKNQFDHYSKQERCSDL
Experimental: as §1
According to the Hanes–Woolf plots, the ratio of initial substrate concentration to the reaction velocity ([S]/v) was plotted against the substrate concentration (μM).

T1 sequence (Q9Z127 whole entry): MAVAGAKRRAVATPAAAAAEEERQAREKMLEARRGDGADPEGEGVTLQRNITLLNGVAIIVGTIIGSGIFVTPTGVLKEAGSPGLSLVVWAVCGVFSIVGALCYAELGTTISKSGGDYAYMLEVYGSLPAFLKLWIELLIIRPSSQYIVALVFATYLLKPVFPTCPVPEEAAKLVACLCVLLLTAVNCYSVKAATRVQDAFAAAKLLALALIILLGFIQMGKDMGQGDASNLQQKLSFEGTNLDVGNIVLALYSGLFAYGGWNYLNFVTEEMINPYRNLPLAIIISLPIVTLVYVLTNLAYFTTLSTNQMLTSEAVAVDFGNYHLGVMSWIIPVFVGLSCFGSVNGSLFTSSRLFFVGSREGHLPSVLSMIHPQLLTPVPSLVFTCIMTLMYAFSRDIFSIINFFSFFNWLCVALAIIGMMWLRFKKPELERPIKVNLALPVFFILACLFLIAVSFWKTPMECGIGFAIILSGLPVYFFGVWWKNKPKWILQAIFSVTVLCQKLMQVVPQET
T1 sequence (P10852 whole entry partner): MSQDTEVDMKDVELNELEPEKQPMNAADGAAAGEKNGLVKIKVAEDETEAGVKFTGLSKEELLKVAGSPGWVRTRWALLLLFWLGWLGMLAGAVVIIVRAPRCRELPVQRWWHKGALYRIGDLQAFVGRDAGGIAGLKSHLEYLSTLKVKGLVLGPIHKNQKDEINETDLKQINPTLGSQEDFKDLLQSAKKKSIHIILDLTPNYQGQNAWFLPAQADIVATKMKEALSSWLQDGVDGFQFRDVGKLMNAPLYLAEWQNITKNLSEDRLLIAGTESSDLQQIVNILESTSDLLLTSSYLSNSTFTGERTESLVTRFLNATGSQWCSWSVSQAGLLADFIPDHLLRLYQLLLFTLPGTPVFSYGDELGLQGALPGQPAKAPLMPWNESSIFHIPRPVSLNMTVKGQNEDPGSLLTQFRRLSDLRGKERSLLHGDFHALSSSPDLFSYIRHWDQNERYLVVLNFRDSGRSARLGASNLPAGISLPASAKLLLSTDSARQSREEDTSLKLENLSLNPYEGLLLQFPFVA
T2 sequence (Q03311 30-603): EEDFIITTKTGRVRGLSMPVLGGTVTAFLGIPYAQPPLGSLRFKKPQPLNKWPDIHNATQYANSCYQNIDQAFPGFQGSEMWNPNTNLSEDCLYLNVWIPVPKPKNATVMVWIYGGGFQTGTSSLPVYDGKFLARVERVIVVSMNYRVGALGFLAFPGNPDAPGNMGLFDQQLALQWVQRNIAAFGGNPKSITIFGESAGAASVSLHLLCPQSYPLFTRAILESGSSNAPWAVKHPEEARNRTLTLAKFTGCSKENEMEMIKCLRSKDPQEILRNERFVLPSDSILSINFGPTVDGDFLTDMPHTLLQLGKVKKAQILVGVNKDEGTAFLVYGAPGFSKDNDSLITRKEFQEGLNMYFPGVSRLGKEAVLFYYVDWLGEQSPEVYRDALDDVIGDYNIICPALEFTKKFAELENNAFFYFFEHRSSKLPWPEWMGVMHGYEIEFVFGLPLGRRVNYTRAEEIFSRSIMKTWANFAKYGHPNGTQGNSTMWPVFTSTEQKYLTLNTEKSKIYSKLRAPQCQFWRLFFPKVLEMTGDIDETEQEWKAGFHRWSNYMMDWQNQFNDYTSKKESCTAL

SMILES | Reversal of cisplatin-induced effects on MCF-7 cell viability [1] | Amount of released PFI in the brain after the prodrug treatment ([2]; after PFI-PD 23 μmol/kg) | Brain levels of PFI after PFI dosing ([2]; dose 23 μmol/kg, LC-MS/MS) | fraction unbound at 4 h, 100 μM [3] | IC50 in astrocytes (inhibition of [14C]-L-leucine uptake) [4] | BChE IC50 value [5] | Inhibition of astrocyte cell growth ([6]; concentrations over 100 μM, vs untreated control) | IC50 [7] | Brain Cmax ([2]; dose 23 μmol/kg) | Unbound brain Cmax,u ([2]; dose 23 μmol/kg) | Kp uu at 50 nM ([3]; primary astrocytes, astrocytes, 50 nM concentration, read-out: Kp,uu,cell (unbound drug accumulation ratio)) | IC50 [4] | Increase of astrocyte cell growth ([6]; 5–100 μM, vs control cells) | Effect on astrocyte cell growth / viability ([6]; 5–400 μM) | Type of AChE inhibition ([7]; Hanes–Woolf plot) | Vmax of AChE reaction in presence of inhibitor ([7]; mouse brain S9, acetylthiocholine, PFI-PD (12 μM), without inhibitor 2.21 ± 0.01)
O=C1OCc2cc(-c3ccc(-c4ccc(CO)cc4)s3)ccc21 [PFI] | not able to revert the cisplatin-induced effects | 0.01 nmol/g of tissue | below the detection limit | 0.0053 ± 0.0001 | did not exhibit any interaction with LAT1; also recorded: No inhibition | No inhibition | 38–68% | 12 µM and 12.3 µM | – | – | – | – | – | – | – | –
N[C@H](Cc1cccc(C(=O)OCc2ccc(-c3ccc(-c4ccc5c(c4)COC5=O)s3)cc2)c1)C(=O)O [PFI-PD] | able to revert the cisplatin-induced effects | – | – | 7e-05 ± 4e-05 | – | No inhibition | – | 8 µM and 8.15 µM | 0.12 nmol/g of tissue | 0.002 nmol/g of tissue | 2.01 ± 0.91 | 4 µM and 3.5 µM | 35–87% | did not exert any inhibitory effects; also recorded: did not affect the cell viability | mixed-type | 2.17 nmol/min/mg protein and 2.17 ± 0.02 nmol/min/mg protein
